Test results published in PMC11448502, “Cryo-EM structures of the human P2X1 receptor reveal subtype-specific architecture and antagonism by supramolecular ligand-binding” (Nature Communications, 2024).
Positions count from the first letter of the chain named. “And” between values parts separate entries of the source, which are not always exact repeats. Equal values may be shown once. Each block holds one compound with its values, some of them ahead of it.

Assays:
[1] = system: thrombosis; settings: in vivo; cited from earlier work
[2] = molecular target: T1, hP2X1 R292A (Homo sapiens, UniProt P51575, R292A); test: NF449 inhibition dose response (IC50), TEVC in oocytes; type: cell-based; settings: for Normalized Current: hP2X1 R292A
T1 construct: hP2X1 mRNA that was made from linearized full-length wild-type or mutant pcDNA 3.1x; expressed in transfected cells; host or cells: Xenopus laevis oocytes (mRNA injection)
T1 sequence (P51575 1-399 R292A): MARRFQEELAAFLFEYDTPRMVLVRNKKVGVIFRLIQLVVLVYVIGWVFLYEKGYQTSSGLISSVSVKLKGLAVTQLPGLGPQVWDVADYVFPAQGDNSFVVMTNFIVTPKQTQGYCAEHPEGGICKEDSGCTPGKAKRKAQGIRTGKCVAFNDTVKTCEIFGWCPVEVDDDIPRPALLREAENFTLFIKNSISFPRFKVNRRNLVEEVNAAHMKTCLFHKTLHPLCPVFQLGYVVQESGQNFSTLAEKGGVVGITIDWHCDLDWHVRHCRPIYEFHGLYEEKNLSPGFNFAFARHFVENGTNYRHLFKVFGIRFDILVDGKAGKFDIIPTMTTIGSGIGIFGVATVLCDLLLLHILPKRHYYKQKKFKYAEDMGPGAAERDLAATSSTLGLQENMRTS
Experimental: (§1) Oocytes were purchased defolliculated from Ecocyte Bioscience in Barth’s Solution (88 mM NaCl, 1 mM KCl, 0.82 mM MgSO4, 0.33 mM Ca(NO3)2, 0.41 mM CaCl2, 2.4 mM NaHCO3, 5 mM Tris-HCl) supplemented with penicillin (100 U/mL) and streptomycin (100 µg/mL). Xenopus laevis oocytes were then injected with 50 nL of 100 ng/μL hP2X1 mRNA that was made from linearized full-length wild-type or mutant pcDNA 3.1x according to the protocol provided in the mMessage mMachine kit (Invitrogen). Injected oocytes were allowed to express for ~20 hours at 18 °C before recording was performed.
(§2) Data acquisition was performed using the Oocyte Clamp OC-725C amplifier and pClamp 8.2 software. Buffers were applied using a gravity fed RSC-200 Rapid Solution Changer that flows at ~5 mL/min. All experiments use Sutter filamented glass 10 cm in length with an inner diameter of 0.69 mm and an outer diameter of 1.2 mm to impale oocytes and clamp the holding voltage at −60 mV. Experiments were recorded in buffer containing 10 mM HEPES (pH 7.4), 140 mM NaCl, 5 mM KCl, 2 mM CaCl2, 2 mM MgCl2, and 10 mM glucose.
(§3) To test a dilution series of an antagonist at discrete concentrations, 10 µM ATP (2 mM ATP for K309A only) was first applied to evoke an initial maximum current. The oocyte was then washed with buffer for one minute, followed by one minute application of an antagonist test-concentration, and concluded by co-application of the same test concentration with 10 µM ATP (2 mM ATP for K309A). The antagonized signal was then normalized against the initial ATP excitatory signal. Each test concentration was performed in triplicate across different oocytes. The data was then fit to a nonlinear regression named “[inhibitor] vs. response – Variable slope (four parameters)” in Prism 9 to produce a sigmoidal curve and afford an IC50 value. Each singular condition was used to generate an average which is reported plus or minus its standard deviation between three discrete trials.

[3] = molecular target: T2, hP2X1 K136A (Homo sapiens, UniProt P51575, K136A); test: as above; type: cell-based; settings: for Normalized Current: hP2X1 K136A
T2 construct: hP2X1 mRNA that was made from linearized full-length wild-type or mutant pcDNA 3.1x; expressed in transfected cells; host or cells: Xenopus laevis oocytes (mRNA injection)
T2 sequence (P51575 1-399 K136A): T1 sequence (P51575 1-399 R292A) with K136A, A292R
Experimental: as §1, §2, §3

[4] = molecular target: T3, hP2X3 WT (Homo sapiens, UniProt P56373); test: ATP dose response (EC50), TEVC in oocytes; type: cell-based
T3 construct: expressed in transfected cells
T3 sequence (P56373 1-397): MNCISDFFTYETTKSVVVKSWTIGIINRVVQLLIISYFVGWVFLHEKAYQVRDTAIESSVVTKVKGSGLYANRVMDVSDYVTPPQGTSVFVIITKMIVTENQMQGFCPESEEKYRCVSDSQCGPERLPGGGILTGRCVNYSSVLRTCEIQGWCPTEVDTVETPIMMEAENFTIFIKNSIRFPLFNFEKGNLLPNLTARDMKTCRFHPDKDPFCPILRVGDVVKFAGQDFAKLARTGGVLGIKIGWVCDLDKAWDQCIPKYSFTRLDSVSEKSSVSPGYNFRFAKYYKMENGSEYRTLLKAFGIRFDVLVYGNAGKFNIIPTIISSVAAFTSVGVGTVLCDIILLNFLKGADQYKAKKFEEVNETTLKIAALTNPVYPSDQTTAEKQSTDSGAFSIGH

Structure (SMILES): O=C(Nc1cc(C(=O)Nc2ccc(S(=O)(=O)O)cc2S(=O)(=O)O)cc(C(=O)Nc2ccc(S(=O)(=O)O)cc2S(=O)(=O)O)c1)Nc1cc(C(=O)Nc2ccc(S(=O)(=O)O)cc2S(=O)(=O)O)cc(C(=O)Nc2ccc(S(=O)(=O)O)cc2S(=O)(=O)O)c1 [NF449, 4,4’,4”,4’’’-(carbonylbis(imino-5,1,3-benzenetriylbis(carbonylimino)))tetrakis-benzene-1,3-disulfonic acid]
- effect on thrombosis [1]: inhibitory effect
- reduction in inhibitory potency of NF449 ([2]; hP2X1 R292A vs wild-type): 31 fold
- Normalized Current ([2]; [NF449] 1.000E-06 M): 0.000000
- Normalized Current ([2]; [NF449] 1.600E-09 M): 1.038 and 1.012 and 0.9446
- Normalized Current ([2]; [NF449] 2.000E-07 M): 0.09965 and 0.08304 and 0.07993
- Normalized Current ([2]; [NF449] 3.200E-10 M): 1.08 and 0.9654 and 0.955
- Normalized Current ([2]; [NF449] 4.000E-08 M): 0.4671 and 0.3945 and 0.2595
- Normalized Current ([2]; [NF449] 8.000E-09 M): 0.8305 and 0.7889 and 0.7059
- reduction in inhibitory potency (IC50) of NF449 ([3]; hP2X1 K136A vs wild-type): 39 fold
- Normalized Current ([3]; [NF449] 1.600E-09 M): 1
- Normalized Current ([3]; [NF449] 2.000E-07 M): 0.205 and 0.1861 and 0.1104
- Normalized Current ([3]; [NF449] 3.200E-10 M): 0.9716 and 0.9527 and 0.8864
- Normalized Current ([3]; [NF449] 4.000E-08 M): 0.5079 and 0.4606 and 0.4322
- Normalized Current ([3]; [NF449] 8.000E-09 M): 0.7634 and 0.7445 and 0.5647

- EC50 ([4]; TEVC): 800 ± 100 nM
- Normalized Current ([4]; [ATP] 1.000E-04 M): 1.024 and 0.937 and 0.934
- Normalized Current ([4]; [ATP] 1.563E-06 M): 0.9021 and 0.8096 and 0.6657
- Normalized Current ([4]; [ATP] 2.500E-05 M): 1.229 and 0.9489 and 0.8224
- Normalized Current ([4]; [ATP] 3.906E-07 M): 0.1693 and 0.1661 and 0.1374
- Normalized Current ([4]; [ATP] 6.250E-06 M): 0.9276 and 0.9021 and 0.8266
- Normalized Current ([4]; [ATP] 9.766E-08 M): 0.0748 and 0.0739 and 0.04276
- Hill slope of activation by ATP ([4]; mean ± SD of three EC50 traces): 2.5 ± 0.6
Structure (SMILES): Nc1ncnc2c1ncn2[C@@H]1O[C@H](COP(=O)(O)OP(=O)(O)OP(=O)(O)O)[C@@H](O)[C@H]1O [ATP]
